Measured values: patent US20220265659A1, “METHODS AND COMPOSITIONS FOR TREATING PAX6-DEFICIENCY RELATED DISEASE” (INSERM (INSTITUT NATIONAL DE LA SANTÉ ET DE AL RECHERCHE …, priority 2019, published 2022)

What was measured:
[1] = test system: mutated limbal stem cells (mut-LSCs); assay: In vitro migration test on IBIDI chambers; type: cell-based, Human; conditions: for rescue of cell migration: mutated limbal stem cells
Procedure: (§1) Cells and culture conditions: Human mutated limbal epithelial stem cells (mut-LSCs) were obtained by genome editing (Crispr/cas9) of primary limbal stem cells, as described in Roux et al. (Roux, 2018 Stem cells). mut-LSCs and WT controls were cultured, as described earlier (Roux, 2018 Stem cells), in Keratinocyte serum-free medium (K-sfm) (Gibco™, Life Technologies), supplemented with 25 μg/mL Bovine Pituitary Extract (BPE; Gibco™, Life Technologies), 0.2 ng/mL Epidermal Growth Factor (EGF, Peprotech), 0.4 mM CaCl2, 2 mM Glutamine (Gibco™, Life Technologies) and 100 U/mL Penicillin/Streptomicin (Gibco™, Life Technologies). Routine subcultures were obtained by detaching cells with StemPro™ Accutase™ Cell Dissociation Reagent (Gibco™, Life Technologies) and replating at 2,000 cells/cm^2 (T-LSCs) or 3,000 cells/cm^2 (PAX6^+/− T-LSCs). All cells were negative for mycoplasma contamination (monthly tested).
In vitro migration test: WT and mut-LSCs were seeded into culture-inserts 2 well at 25,000 cells per well in 6-well plates (IBIDI®). […] Sixteen hours after plating, the inserts were removed creating a gap of 500 μm between cells. Patches were overlaid with culture medium and closure of the gap was monitored for 10 h, taking pictures at regular time intervals. Gap width was measured using ImageJ 1.49 software (NIH). Results are presented as percent of gap width normalized at 100% at t=0 h.

[2] = test system: Mut-LSCs; assay: Rescue experiments: compound added to the culture medium of Mut-LSCs (cell toxicity, optimal concentration); type: cell-based, Human; conditions: qRT-PCR, cell migration and cell adhesion
Procedure: as §1
(§2) Rescue experiments: Mut-LSCs were treated with each compound (Duloxetine, Ritanserine and Topotecan) directly added into the culture medium from 0.5 μg/mL to 4 μg/mL. No cell toxicity has been observed up to 10 μg/mL. The optimal concentration for each experiment (qRT-PCR, cell migration and cell adhesion) was 0.5 μg/mL. As positive control, 2 μg/mL recombinant PAX6 protein coupled with an 11R-tag (recPAX6, LD Biopharma Inc) was added, as described elsewhere (Roux et al. 2018 Stem cells).

[3] = test system: PAX6-target gene expression; assay: qRT-PCR analysis of PAX6-target gene expression in rescue experiments; type: cell-based, Human; conditions: mutated limbal stem cells
Procedure: as §1, §2
(§3) qRT-PCR analysis: Cells were treated for 10 h with either compound or recPAX6 for rescue experiments, and harvested as a dry pellet. RNA was then extracted using RNEasy Mini kit (Qiagen) and cDNA were synthetized from 1 μg RNA using iScript cDNA synthesis kit (Bio-Rad). Quantitative PCR were performed in triplicate using […] SYBR Green PCR Master Mix (Absource Biotools). Expression of each gene was calculated using the 2^−ΔΔCt method. Results are presented as fold change normalized to B2M house-keeping gene and relative to control (treated with protein buffer or untreated) T-LSCs. Specific primers sequences used are listed in Suppl.

[4] = test system: PAX6 protein; assay: Western blot analysis of PAX6 protein production; type: cell-based, Human; design: rescue of PAX6 haploinsufficiency in vitro: unit of the concentration uncertain; conditions: for rescue of the production of endogenous PAX6 protein: mutated limbal stem cells
Procedure: as §1
[…] No cell toxicity has been observed up to 10 μg/mL. […] As positive control, 2 μg/mL recombinant PAX6 protein coupled with an 11R-tag (recPAX6, LD Biopharma Inc) was added, as described elsewhere (Roux et al. 2018 Stem cells).
Western blot analysis: Cells were harvested as a dry pellet, […] recPAX6 protein or its buffer for rescue experiments, lysed in RIPA buffer supplemented with Protease and Phosphatase Inhibitor Cocktail EDTA-Free (Roche) for 15 min on ice and centrifuged for 15 min at 4° C. at 15,000×g. Protein concentration was measured using Pierce BCA Protein Assay kit (Thermo Fisher Scientific) following manufacturer instructions. Thirty micrograms of total protein or 10 ng of recPAX6 protein were loaded on a SDS-PAGE gel (10%), transferred to nitrocellulose membranes using semi-dry method. Membranes were pre-stripped using Re-Blot Plus Strong solution (EMD Millipore) for 15 min, blocked twice for 5 min in 5% milk solution and incubated in primary antibody (PAX6, ab2237, Millipore, 1/1,000) overnight at 4° C. After 3 washing of 10 min in TBS with 0.2% Tween (TBS-T), membranes were incubated for 1 h with secondary antibody (Goat anti-rabbit HRP, BD Pharmingen) diluted in TBS-T 5% milk solution at 1/1,000. Proteins were visualized using chemiluminescence detection (Clarity™ Western ECL Substrate, Bio-Rad) on a gel imaging system (ImageQuant LAS 4000). Membranes were stripped again, incubated 90 min at room temperature with ACTIN (sc1615, 1/500, Santa Cruz) antibody diluted in TBS-T 5% milk, washed 3×10 min in TBS-T and incubated for 1 h in secondary antibody (Rabbit anti-goat HRP, 1/20,000, Jackson ImmunoResearch) at room temperature before revelation. Signal quantifications were made using ImageJ 1.49 software (NIH). Results are presented after ACTIN normalization.

[5] = test system: PAX6; assay: qRT-PCR analysis for PAX6 expression with amplicon sequencing; type: cell-based, Human
Procedure: as §1, with “T-LSCs).” for “T-LSCs). All cells were negative for mycoplasma contamination (monthly tested).”
as §3, with “Results are presented as fold change normalized to B2M house-keeping gene and relative to control (treated with protein buffer or untreated) T-LSCs.” left out

[6] = test system: limbal stem cells (mut-LSC); conditions: mut-LSC with a nonsense mutation found in patients; cited from earlier work

| Compound | rescue of migration of mutated limbal cells ([1]; FIG. 2: mut-LT, 0.5 µg/mL, 2 h before migration start, IBIDI chambers) | rescue of cell migration [1] | optimal concentration for each experiment [2] | rescue of PAX6-target gene expression [3] | rescue of PAX6 haploinsufficiency in vitro ([4]; FIG. 1: mut-LT limbal stem cells, 0.5 (unit uncertain), 10 h, qRT-PCR for PAX6-target gene expression (A), western blot for PAX6 protein (B)) | rescue of the production of endogenous PAX6 protein [4] | amplification of the mutated allele (amplicons sequenced) ([5]; FIG. 3: mut-LSCs + Topotecan) | WT allele transcription (PAX6 expression by qRT-PCR) ([5]; FIG. 3: mutated cells (mut-LSC)) | PAX6 expression by qRT-PCR ([5]; FIG. 3: treated WT-LSCs (normal LSCs)) | rescue of PAX6 gene expression at the RNA level ([5]; mutated limbal stem cells) | PAX6 protein production ([4]; FIG. 5: W mutant limbal cells) | PAX6 protein production ([4]; FIG. 4: mutated LT (W) cells, western blot, 0.5, 1 or 5 mM) | rescue of altered PAX6 target gene expression, cell adhesion, cell migration and proliferation [6] |
| --- | --- | --- | --- | --- | --- | --- | --- | --- | --- | --- | --- | --- | --- |
| CC[C@@]1(O)C(=O)OCc2c1cc1n(c2=O)Cc2cc3c(CN(C)C)c(O)ccc3nc2-1 [Topotecan, topotecan] | can rescue | able to rescue | 0.5 µg/mL | able to rescue | can rescue | able to rescue | did not identified any amplification | activates | not enhanced | able to rescue | – | – | – |
| CNCC[C@H](Oc1cccc2ccccc12)c1cccs1 [Duloxetine, duloxetine] | – | able to rescue | 0.5 µg/mL | able to rescue | – | able to rescue | – | – | – | – | rescued | – | – |
| Cc1nc2sccn2c(=O)c1CCN1CCC(=C(c2ccc(F)cc2)c2ccc(F)cc2)CC1 [Ritanserine, ritanserin] | – | able to rescue | 0.5 µg/mL | able to rescue | – | able to rescue | – | – | – | – | – | rescued | – |
| recombinant PAX6 protein: recombinant PAX6 protein coupled with an 11R-tag (recPAX6, LD Biopharma Inc), positive control | – | – | – | – | – | – | – | – | – | – | – | – | rescued |
